Our source for the IC50, TIE2-FP and VEGF-E values is patent US7338959B2, “Diamino-pyrimidines and their use as angiogenesis inhibitors” (SmithKline Beecham Corporation, priority 2002, dated 2008).

The test system of assay [1] is Human umbilical cord endothelial cells (HUVEC). The assay can be described thus: VEGF-driven cellular proliferation assay: BrdU incorporation assay (VEGF-C). The settings on record: 20 ng/ml VEGF. Format: cell-based. Here is the method: VEGF-Driven Cellular Proliferation Assay: BrdU Incorporation Assay (VEGF-C)
Human umbilical cord endothelial cells (HUVEC, Clonetics, CC2519) were passaged in Type I collagen-coated 100-mm petridishes in EGM-MV medium (Clonetics, CC3125) at 37 C in a humidified 5% CO2, 95% air incubator. (HUVEC passaged more than 6 times in vitro were discarded and not subjected to assaying.) The cells were harvested using trypsin/EDTA, counted using a haemocytometer and plated at 5000 cells/well in a Type I-collagen coated 96-well plate (Becton Dickinson, 354407) in M199 medium (Gibco BRL, 12340-030) containing 5% FBS (Hyclone, A 1115-L) and gentamicin (at 50 ug/ml, Gibco BRL). After incubation overnight at 37° C., the media were replaced with 100 ul of M199 serum-free medium containing compounds at various concentrations with 0.6% DMSO and gentamicin. The compounds were diluted in serum-free M199 medium from 10 mM stock solutions prepared in 100% DMSO. After a 30 min incubation at 37° C., the cells were fed with 100 ul of serum-free M199 medium containing gentamicin, 0.2% culture-grade bovine serum albumin (BSA, Sigma A1993) and 20 ng/ml of VEGF (REtD systems, 293-VE) or 0.6 ng/ml of basic FGF (REtD systems, 233-FB), and cultured at 37° C. for another 24 h. The cells were pulsed with bromodeoxyuridine (BrdU at 10 uM in serum-free M199) at 37° C. for an additional 24 h. The incorporation of BrdU into the proliferating HUVEC were analyzed using BrdU Cell Proliferation ELISA (Roche Molecular Biochemicals, 1647229) according to the manufacturer's protocols. The optical density at 450 nm was measured with a multilabel counter (ARVO SX, Wallac). The percent inhibition of cell growth was calculated relative to blank control wells. The concentration of test compound that inhibits 50% of cell growth (IC50) was interpolated using nonlinear regression (Levernberg-Marquardt) and the equation, y=Vmax (1−x/(K+x))+Y2, where “K” was equal to the IC50. The IC50 values were converted to pIC50 values, i.e., −log IC50 in Molar concentration.
For orientation: Dividing cells build labelled thymidine or BrdU into new DNA.

Assay [2] concerns the target T1, GST-VEGFR2 (Homo sapiens, UniProt P35968).
T1 construct: baculovirus expressed recombinant constructs of the intracellular domains of human TIE2 tagged by GST; made in house
The assay can be described thus: VEGF-R2 enzyme assay (VEGF-E), LANCE method. The settings on record: GST-VEGFR2, 75 uM ATP, biotinylated peptide. The format is biochemical. The text has this:
VEGF-R2 Enzyme Assay (VEGF-E)
The VEGF enzyme assay used the LANCE method (Wallac) and GST-VEGFR2, baculovirus expressed recombinant constructs of the intracellular domains of human TIE2 tagged by GST. The method measured the ability of the purified enzymes to catalyse the transfer of the γ-phosphate from ATP onto tyrosine residues in a biotinylated synthetic peptide, (biotin-aminohexyl-EEEEYFELVAKKKK-NH2). This peptide phosphorylation was detected using the following procedure: GST-VEGFR2 was incubated for 40-60 mins at room temperature with 75 uM ATP, 5 mM MgCl2, 0.1 mM DTT, 0.1 mg/mL BSA and the test compound (diluted from a 10 mM stock in DMSO for desired concentration) in 100 mM HEPES buffer. The reaction was stopped by the addition of EDTA (final concentration 50 mM). Streptavidin linked-APC (allophycocyanin, Molecular Probe) and Europium-labeled anti-phosphorylated tyrosine antibody (Wallac) were then added at the final concentration of 15 nM and 1 nM, respectively. The APC signal was measured using an ARVO multilabel counter (Wallac Berthold, Japan). The percent inhibition of activity was calculated relative to blank control wells. The concentration of test compound that inhibits 50% of activity (IC50) was interpolated using nonlinear regression (Levernberg-Marquardt) and the equation, y=Vmax (1−x/(K+x))+Y2, where “K” was equal to the IC50. The IC50 values were converted to pIC50 values, i.e., −log IC50 in Molar concentration.

In assay [3] the target is Recombinant GST-Tie2 (Homo sapiens, UniProt Q02763). The assay can be described thus: Tie2 fluorescence polarization kinase activity assay (TIE2-FP). Format: biochemical. As to conditions: activated Tie2, 200 μM ATP, peptide substrate. Here is the method:
Tie2 Fluorescence Polarization Kinase Activity Assay: (TIE2-FP)
Activation of Recombinant Tie2 Activation:
Recombinant GST-Tie2 was activated by incubating the enzyme in 20 mM Tris-HCl, pH 7.5, 12 mM MgCl2, 100 mM NaCl, 20 μM sodium vanidate, 1 mM DTT and 300 μM ATP at room temperature for 2 hours. The activation mixture was then passed through a NAP-25 desalting column (Pharmacia Biotech cat. no. 17-0852-02) to remove the free ATP. The activated enzyme was stored as aliquots at −80° C. in 20 mM Tris-HCl, pH 7.5 and 100 mM NaCl.
The final assay conditions were 50 mM HEPES, pH 7.5, 5% DMSO (when screening compounds), 200 μM ATP, 5 mM MgCl2, 1 mM DTT, 50 μM sodium vanidate, 1 nM activated enzyme, and 200 μM peptide. IC50's of compounds were measured under subsaturating ATP (200 μM) and varing concentrations of activated Tie2 and peptide substrate (RFWKYEFWR-OH; MW 1873 Da, TFA salt). Panvera Anti-phosphotyrosine antibody (Cat#P2840) and PTK Green Tracer (Cat#P2842) were used to detect the phosphorylated peptide. Polarization was measured on a TECAN Polarion in 138-second cycles for 30 minutes at room temperature. IC50's were then determined from the % polarization using normal calculation methods.
On the technique in general: Fluorescence polarisation rises when a labelled molecule tumbles more slowly, as on binding a larger partner.

Where a name gives a salt, the structure may show the parent alone.

Recombinant GST-Tie2, sequence (Q02763 23-1124): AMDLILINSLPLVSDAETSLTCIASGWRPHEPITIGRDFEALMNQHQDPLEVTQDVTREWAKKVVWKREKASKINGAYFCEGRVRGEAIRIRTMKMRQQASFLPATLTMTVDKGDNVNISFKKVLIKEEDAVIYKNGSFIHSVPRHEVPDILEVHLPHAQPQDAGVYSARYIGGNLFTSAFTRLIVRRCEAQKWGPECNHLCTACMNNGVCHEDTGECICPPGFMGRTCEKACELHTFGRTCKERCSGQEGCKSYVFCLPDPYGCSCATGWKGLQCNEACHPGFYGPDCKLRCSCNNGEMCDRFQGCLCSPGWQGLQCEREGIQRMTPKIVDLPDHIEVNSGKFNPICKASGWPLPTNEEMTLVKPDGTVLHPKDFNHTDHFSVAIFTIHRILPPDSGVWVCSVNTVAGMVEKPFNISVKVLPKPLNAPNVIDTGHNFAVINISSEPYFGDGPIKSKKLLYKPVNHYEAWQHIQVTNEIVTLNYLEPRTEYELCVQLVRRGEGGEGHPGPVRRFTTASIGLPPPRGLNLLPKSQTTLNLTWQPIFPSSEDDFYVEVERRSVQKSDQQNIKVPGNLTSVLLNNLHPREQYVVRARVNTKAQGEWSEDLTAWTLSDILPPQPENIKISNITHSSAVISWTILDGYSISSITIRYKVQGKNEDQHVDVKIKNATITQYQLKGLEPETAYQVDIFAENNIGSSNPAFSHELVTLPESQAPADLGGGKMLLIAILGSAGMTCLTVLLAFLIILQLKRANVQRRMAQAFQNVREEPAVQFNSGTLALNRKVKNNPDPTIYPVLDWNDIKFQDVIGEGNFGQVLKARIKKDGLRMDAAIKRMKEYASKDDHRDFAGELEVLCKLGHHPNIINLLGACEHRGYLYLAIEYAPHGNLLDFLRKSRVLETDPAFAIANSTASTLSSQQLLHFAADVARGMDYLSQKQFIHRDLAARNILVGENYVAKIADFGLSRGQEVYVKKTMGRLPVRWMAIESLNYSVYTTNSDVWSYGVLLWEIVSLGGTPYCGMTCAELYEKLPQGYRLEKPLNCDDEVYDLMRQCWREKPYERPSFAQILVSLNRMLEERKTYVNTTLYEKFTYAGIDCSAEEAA
T1 sequence (P35968 786-1356 limits assumed): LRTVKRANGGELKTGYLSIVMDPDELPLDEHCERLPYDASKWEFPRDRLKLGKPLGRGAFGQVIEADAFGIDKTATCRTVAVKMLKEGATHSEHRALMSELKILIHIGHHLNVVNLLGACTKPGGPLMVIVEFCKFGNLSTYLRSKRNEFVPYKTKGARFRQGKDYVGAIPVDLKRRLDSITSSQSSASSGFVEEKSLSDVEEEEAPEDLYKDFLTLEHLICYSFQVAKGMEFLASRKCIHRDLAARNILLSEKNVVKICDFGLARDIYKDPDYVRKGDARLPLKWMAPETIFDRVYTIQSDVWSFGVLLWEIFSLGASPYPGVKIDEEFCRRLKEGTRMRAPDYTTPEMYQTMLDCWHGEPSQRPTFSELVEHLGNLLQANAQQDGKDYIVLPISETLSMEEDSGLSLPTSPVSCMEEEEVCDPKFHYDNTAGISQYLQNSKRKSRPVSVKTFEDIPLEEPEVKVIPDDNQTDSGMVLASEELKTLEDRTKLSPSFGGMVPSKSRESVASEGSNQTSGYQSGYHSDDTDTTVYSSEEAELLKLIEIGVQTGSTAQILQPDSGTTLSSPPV

Broadly, the IC50 is the concentration at which inhibition is half-maximal. Turning to `CC(C)Nc1nc2cc(N(C)c3ccnc(Nc4ccc(CS(C)(=O)=O)cc4)n3)ccc2n1C` [Example 1, N^2-isopropyl-N^5,1-dimethyl-N^5-[2-({4-[(methylsulfonyl)methyl]phenyl}amino)pyrimidin-4-yl]-1H-benzimidazole-2,5-diamine hydrochloride], the IC50 in assay [1] and in assay [2] was under 0.1 µM each time.
Consider `CC(C)Nc1nc2cc(N(C)c3ccnc(Nc4ccc(CS(N)(=O)=O)cc4)n3)ccc2n1C` [Example 2, hydrochloride], for which the IC50 in assay [1] and in assay [2] was under 0.1 µM throughout.
Consider `CNc1nc2cc(N(C)c3ccnc(Nc4ccc(CS(C)(=O)=O)cc4)n3)ccc2n1C` [Example 3, hydrochloride], for which the 50% inhibitory concentration (IC50) in assay [1] and in assay [2] was under 0.1 µM in each case.
For the molecule `CN(c1ccc2c(c1)nc(NCc1ccccc1)n2C)c1ccnc(Nc2ccc(CS(C)(=O)=O)cc2)n1` [Example 4, N^2-benzyl-N^5,1-dimethyl-N^5-[2-({4-[(methylsulfonyl)methyl]phenyl}amino)pyrimidin-4-yl]-1H-benzimidazole-2,5-diamine hydrochloride], the IC50 in assay [1] and in assay [2] was under 0.1 µM throughout.
With `CN(c1ccc2c(c1)nc(Nc1ccccc1)n2C)c1ccnc(Nc2ccc(CS(C)(=O)=O)cc2)n1` [Example 5, N^5,1-Dimethyl-N^5-[2-({4-[(methylsulfonyl)methyl]phenyl}amino)pyrimidin-4-yl]-N^2-phenyl-1H-benzimidazole-2,5-diamine trifluoroacetic acid], the IC50 in assay [1] and in assay [2] was under 0.1 µM throughout.
Regarding `CONS(=O)(=O)c1cc(Nc2nccc(N(C)c3ccc4c(c3)nc(NCc3ccccc3)n4C)n2)ccc1C` [Example 6, 5-({4-[[2-(Benzylamino)-1-methyl-1H-benzimidazol-5-yl](methyl)amino]pyrimidin-2-yl}amino)-N-methoxy-2-methylbenzenesulfonamide], the half-inhibitory concentration (IC50) in assay [1] and in assay [2] was under 0.1 µM throughout.
As for `CN(c1ccc2c(c1)nc(NC(=O)C1(c3ccccc3)CC1)n2C)c1ccnc(Nc2ccc(CS(C)(=O)=O)cc2)n1` [Example 203, Phenylcyclopropanecarboxylic acid ({[2-(4-methanesulfonylmethyl-phenylamino)-pyrimidin-4-yl]-methyl-amino}-methyl-1H-benzoimidazol-2-yl)-amide], the half-maximal inhibitory concentration (IC50) in assay [3] and in assay [2] was under 0.1 µM throughout.
`CN(c1ccc2c(c1)nc(NC(=O)C1(c3cc(F)ccc3F)CC1)n2C)c1ccnc(Nc2ccc(CS(C)(=O)=O)cc2)n1` [Example 204, 1-(2,5-Difluoro-phenyl)-cyclopropanecarboxylic acid ({[2-(4-methanesulfonylmethyl-phenylamino)-pyrimidin-4-yl]-methyl-amino}-methyl-1H-benzoimidazol-2-yl)-amide]: the IC50 in assay [3] lay within 1 to 10 µM; in assay [2] it was 0.1 to 1 µM.
On the same counts, the results for `CN(c1ccc2c(c1)nc(NC(=O)Cc1ccc(F)cc1)n2C)c1ccnc(Nc2ccc(CS(C)(=O)=O)cc2)n1` [Example 206, 2-(4-Fluoro-phenyl)-N-({[2-(4-methanesulfonylmethyl-phenylamino)-pyrimidin-4-yl]-methyl-amino}-methyl-1H-benzoimidazol-2-yl)-acetamide] are 1 to 10 µM and under 0.1 µM.
With `CN(c1ccc2c(c1)nc(NC(=O)Cc1cccc(F)c1F)n2C)c1ccnc(Nc2ccc(CS(C)(=O)=O)cc2)n1` [Example 226, (2,3-Difluorophenyl)-N-({[2-(4-methanesulfonylmethyl-phenylamino)-pyrimidin-4-yl]-methyl-amino}-methyl-1H-benzoimidazol-2-yl)-acetamide], the IC50 is 1 to 10 µM in assay [3] and under 0.1 µM in assay [2].
On to `CN(c1ccc2c(c1)nc(NC(=O)C1(c3ccc(Cl)c(Cl)c3)CC1)n2C)c1ccnc(Nc2cccc(CS(C)(=O)=O)c2)n1` [Example 229, 1-(3,4-Dichloro-phenyl)-cyclopropanecarboxylic acid ({[2-(3-methanesulfonylmethyl-phenylamino)-pyrimidin-4-yl]-methyl-amino}-methyl-1H-benzoimidazol-2-yl)-amide], for which the results for the IC50 in assay [3] and in assay [2] were 1 to 10 µM and 0.1 to 1 µM, respectively.
As to `CN(c1ccc2c(c1)nc(NC(=O)Cc1ccccc1Cl)n2C)c1ccnc(Nc2ccc(CS(C)(=O)=O)cc2)n1` [Example 230, 2-(2-Chlorophenyl)-N-({[2-(4-methanesulfonylmethyl-phenylamino)-pyrimidin-4-yl]-methyl-amino}-methyl-1H-benzoimidazol-2-yl)-acetamide], the half-inhibitory concentration (IC50) in assay [3] was 1 to 10 µM; in assay [2] it was under 0.1 µM.
Regarding “(3,5-Bis-trifluoromethyl-phenyl)-N-({[2-(3-methanesulfonylmethyl-phenylamino]-pyrimidin-4-yl]-methyl-amino}-methyl-1H-benzoimidazol-2-yl)-acetamide [Example 161]”, in assay [3], the TIE2-FP result is on record as “+ (+ = pIC50 of 5.0-6.0)”. Besides, the VEGF-E entry in assay [2] is “++ (++ = pIC50 of 6.0-7.0)”.
For “N-({[2-(4-Methanesulfonylmethyl-phenylamino)-pyrimidin-4-yl]-methyl-amino}-methyl-1H-benzoimidazol-2-yl)-dimethyl-butyramide [Example 177]”, in that order: “+ (+ = pIC50 of 5.0-6.0)” and “+++ (+++ = pIC50 of >7.0)”.
On the same counts, the results for “Thiophene-2-carboxylic acid ({[2-(3-methanesulfonylmethyl-phenylamino)-pyrimidin-4-yl]-methyl-amino}-methyl-1H-benzoimidazol-2-yl)-amide [Example 167]” are “+ (+ = pIC50 of 5.0-6.0)” and “+++ (+++ = pIC50 of >7.0)”.
